From US7285703B2, “Plant like starches and the method of making them in hosts” (BASF Plant Science GmbH, priority 1998, dated 2007)

Molecular target: maize starch synthase SSIIa-1, putative full length SSIIa (669 amino acids), N-terminus AEAEAGGK (SEQ ID NO:68) (Zea mays, UniProt A0A804PX87)
Experiment: ADPGlc kinetics of starch synthase SSIIa-1
Type: biochemical
Details: for Vmax (ADPGlc kinetics): amylopectin as primer, 27° C.
Text: FIG. 59. SSIIa-1 and SSIIa-2 construct diagram. Two forms of SSIIa were constructed in the pET expression system. pExs3c encodes SSIIa-1, the putative full length maize SSIIa which has the N-terminal sequence AEAEAGGK (SEQ ID NO:68). […] A depiction of the waxy gene, encoding GBSS which has the N-terminal sequence ASAGMNVV (SEQ ID NO:67), is also included for comparison. The amino acid motif KTGGL (SEQ ID NO:10), the putative binding site for ADPGlc, is indicated by the triangles. The KTGGL (SEQ ID NO:10) motif is located 18 amino acids from the N-terminus in GBSS, while the motif is 194 amino acids from the N-terminus in maize SSIIa.
5 mL of supernatant were used to assay STS and SBE activities as previously described (Preiss) with minor modification. […] […] The unincorporated [^14C]-ADPGlc was separated with Dowex anion exchange column (200-400 mesh, Sigma Chemical Co.). One unit of activity is defined as 1 nmol Glc incorporated into the a-glucan per min at 25° C. SBE activity was determined by phosphorylase stimulation assay. One unit of activity is defined as 1 mmol Glc incorporated into the a-glucan per min at. 30° C.
For the recombinant SS purification, the cell pellet was resuspended in sonication buffer (50 mM Tris-acetate, pH 7.5, 10 mM EDTA, and 5 mMDTT; 7 ml buffer per gram of cell mass), and cells were lysed using a Fisher 550 Sonic Dismembrator with 5×1 min. bursts with 30 sec. intervals. The homogenate was centrifuged at 9600 g for 30 minutes. SSI in the supernatant was then precipitated by slowly adding neutralized saturated ammonium sulfate to 40% saturation. After stirring on ice for an additional 50 minutes, proteins were collected by centrifugation at 12500 g for 45 minutes. The protein pellet was then redissolved in buffer A (50 mM Tris, pH 5.5, 1 mM EDTA, and 5 mM DTT) containing 0.1 M KCl and dialyzed against the same buffer, with one change of buffer. After dialysis, the sample was centrifuged at 13000 g for 20 minutes to remove insoluble materials. […]

Chain of maize starch synthase SSIIa-1, putative full length SSIIa (669 amino acids), N-terminus AEAEAGGK (SEQ ID NO:68) (A0A804PX87 entry or part of it): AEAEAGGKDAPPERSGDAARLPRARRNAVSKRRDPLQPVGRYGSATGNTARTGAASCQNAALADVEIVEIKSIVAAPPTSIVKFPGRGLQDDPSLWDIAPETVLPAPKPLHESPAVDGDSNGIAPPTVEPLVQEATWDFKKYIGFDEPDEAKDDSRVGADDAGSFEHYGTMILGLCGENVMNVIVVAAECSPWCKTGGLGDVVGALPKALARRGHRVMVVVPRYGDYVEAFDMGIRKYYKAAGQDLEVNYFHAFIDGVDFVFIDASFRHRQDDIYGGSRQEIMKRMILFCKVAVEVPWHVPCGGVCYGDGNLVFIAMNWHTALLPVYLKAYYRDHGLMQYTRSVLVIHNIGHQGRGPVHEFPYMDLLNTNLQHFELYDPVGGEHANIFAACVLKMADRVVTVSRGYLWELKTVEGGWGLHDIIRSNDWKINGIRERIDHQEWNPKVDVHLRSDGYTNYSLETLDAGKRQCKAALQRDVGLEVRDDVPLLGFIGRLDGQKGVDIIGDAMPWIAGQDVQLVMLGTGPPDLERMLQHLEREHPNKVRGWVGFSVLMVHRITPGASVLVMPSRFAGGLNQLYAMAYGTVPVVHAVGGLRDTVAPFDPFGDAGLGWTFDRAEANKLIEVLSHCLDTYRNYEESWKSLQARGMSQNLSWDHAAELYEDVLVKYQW

Nc1ncnc2c1ncn2[C@@H]1O[C@H](COP(=O)(O)OP(=O)(O)O[C@H]2O[C@H](CO)[C@@H](O)[C@H](O)[C@H]2O)[C@@H](O)[C@H]1O [ADPGlc, adenosine diphosphate glucose]
Vmax (ADPGlc kinetics) (+citrate): 23.0 ± 2.5 μmol/min/mg protein
Vmax (ADPGlc kinetics) (−citrate): 12.1 ± 0.8 μmol/min/mg protein
increase of Km of ADPGlc upon raising the assay temperature (from 27° C. to 37° C.): 2 fold
